From patent US20230416240A1, “KAT6 TARGETING COMPOUNDS” (Prelude Therapeutics Incorporated, priority 2022, published 2023) come the findings set out here.

For one assay, the target named is T1, KAT6A (Homo sapiens, UniProt Q92794).
T1 construct: These studies were conducted in the HCC1954 cell line which harbors a KAT6A copy number amplification; endogenous in cells; host or cells: HCC1954
In words: Western Blot KAT6A Degradation Assessment. It is filed as cell-based. Conditions: 0.1 μM compound, 24 hours of treatment, HCC1954 cell line, KAT6A normalized to GAPDH and DMSO. The procedure: The activity of compounds was evaluated by measuring KAT6A protein levels as a readout of KAT6A degradation ability using western blot. These studies were conducted in the HCC1954 cell line which harbors a KAT6A copy number amplification. Cells were maintained in a 37° C. incubator at 5% CO2 in the following media: RPMI 1640, ATCC© Modification (Gibco, A10491-01) supplemented with 10% v/v FBS (Gibco, 26140-079) and 1% penicillin streptomycin (Gibco, 15140-122). Cells were seeded in 6-well plates at a density of 300,000 cells/well and allowed to attach overnight in an incubator. Compounds dissolved in DMSO were prepared at 1000× the desired final concentration such that the final percentage of DMSO was 0.1%. After 24 hours of treatment, cells were washed with phosphate buffered saline (PBS) (Corning, 21-040-CV), detached with trypsin-EDTA (Gibco, #25200-056), and pelleted in complete RPMI media in a microcentrifuge for 5 min at 1500 rpm. Protein was extracted from cell pellets by re-suspending in 15 uL PBS before adding 45 uL of lysis buffer composed of 4% SDS, 1× protease and phosphatase inhibitors, and 1 mM PMSF (Cell Signaling Technology, #8553S). Lysates were transferred to homogenizer columns (Omega Biotek, #HCR003) and centrifuged for 1.5 min at 12,000 rpm.
Homogenized lysates were quantified by BCA assay (ThermoScientific, Pierce BCA Protein Assay, #23223, #23224) as per manufacturer instructions. Samples were then diluted in 4× Laemmli buffer (Biorad, #1610747) to a 1× solution which was boiled at 95° C. for 5 minutes. To assess KAT6A protein expression, samples were run on 26 well gels (Biorad, 4-15% Criterion TGX Precast gels, #5671085) at 120V for approximately 1 hour. Protein was transferred to low-fluorescence PVDF membranes (Millipore Sigma, #IPFL00010) using Trans-Blot Turbo Transfer System (Biorad). Membranes were then probed with KAT6A (Cell Signaling Technology, #78462) and GAPDH (Cell Signaling Technology, #5174S) primary, and fluorescently tagged secondary antibodies (LI-COR, IRDye 800CW Goat anti-rabbit #926-32211; IRDye 680RD Goat anti-mouse #926-68070) at manufacturer recommended conditions using the iBind Flex western device (Thermofisher, SLF2000). Membranes were washed briefly in water and scanned with a LI-COR Odyssey CLx. Quantification of bands was assessed using Image Studio Ver 5.2. to normalize KAT6A expression to GAPDH loading controls before representing KAT6A expression as a percentage of that observed in DMSO.
Background: In western blotting, separated proteins are transferred to a membrane and probed.

A further assay deals with T2, HiBit tagged KAT6A (Homo sapiens, UniProt Q92794).
T2 construct: host or cells: HeLa
In words: HiBit KAT6A Degradation Assessment. It is filed as cell-based. Conditions: HeLa cells with HiBit tagged KAT6A, 18 h of treatment, 9-point serial dilution. The procedure: The degradation activity of compounds was evaluated by measuring levels of KAT6A protein using the HiBiT system. These studies were conducted in HeLa cells with a HiBit tagged KAT6A. Cells were maintained in a 37° C. incubator at 5% CO2 in EMEM (ATCC, 30-2003) supplemented with 10% v/v FBS (Gibco, 26140-079) and 1% penicillin streptomycin. Cells were seeded in 384-well plates at a density of 2,000 cells/well. Compounds dissolved in DMSO were added in 9-point serial dilution. After 18 h of treatment, KAT6A levels were measured using the Nano-Glo® HiBiT Lytic Detection System (Promega catalog number N3030) per manufacturer's instructions. Luminescence signal was measured with a multimode plate reader (Envision 2105, Perkin Elmer). Luminescence values were normalized to background and DMSO controls to quantify KAT6A for each condition. Results were analyzed, and DC50 and Dmax values obtained using a four-parameter logistic curve fit.
For orientation: With HiBiT, luminescence reflects the tagged protein that the partner subunit can reach.

Molecules are shown by their SMILES.

T1 sequence (Q92794 whole entry): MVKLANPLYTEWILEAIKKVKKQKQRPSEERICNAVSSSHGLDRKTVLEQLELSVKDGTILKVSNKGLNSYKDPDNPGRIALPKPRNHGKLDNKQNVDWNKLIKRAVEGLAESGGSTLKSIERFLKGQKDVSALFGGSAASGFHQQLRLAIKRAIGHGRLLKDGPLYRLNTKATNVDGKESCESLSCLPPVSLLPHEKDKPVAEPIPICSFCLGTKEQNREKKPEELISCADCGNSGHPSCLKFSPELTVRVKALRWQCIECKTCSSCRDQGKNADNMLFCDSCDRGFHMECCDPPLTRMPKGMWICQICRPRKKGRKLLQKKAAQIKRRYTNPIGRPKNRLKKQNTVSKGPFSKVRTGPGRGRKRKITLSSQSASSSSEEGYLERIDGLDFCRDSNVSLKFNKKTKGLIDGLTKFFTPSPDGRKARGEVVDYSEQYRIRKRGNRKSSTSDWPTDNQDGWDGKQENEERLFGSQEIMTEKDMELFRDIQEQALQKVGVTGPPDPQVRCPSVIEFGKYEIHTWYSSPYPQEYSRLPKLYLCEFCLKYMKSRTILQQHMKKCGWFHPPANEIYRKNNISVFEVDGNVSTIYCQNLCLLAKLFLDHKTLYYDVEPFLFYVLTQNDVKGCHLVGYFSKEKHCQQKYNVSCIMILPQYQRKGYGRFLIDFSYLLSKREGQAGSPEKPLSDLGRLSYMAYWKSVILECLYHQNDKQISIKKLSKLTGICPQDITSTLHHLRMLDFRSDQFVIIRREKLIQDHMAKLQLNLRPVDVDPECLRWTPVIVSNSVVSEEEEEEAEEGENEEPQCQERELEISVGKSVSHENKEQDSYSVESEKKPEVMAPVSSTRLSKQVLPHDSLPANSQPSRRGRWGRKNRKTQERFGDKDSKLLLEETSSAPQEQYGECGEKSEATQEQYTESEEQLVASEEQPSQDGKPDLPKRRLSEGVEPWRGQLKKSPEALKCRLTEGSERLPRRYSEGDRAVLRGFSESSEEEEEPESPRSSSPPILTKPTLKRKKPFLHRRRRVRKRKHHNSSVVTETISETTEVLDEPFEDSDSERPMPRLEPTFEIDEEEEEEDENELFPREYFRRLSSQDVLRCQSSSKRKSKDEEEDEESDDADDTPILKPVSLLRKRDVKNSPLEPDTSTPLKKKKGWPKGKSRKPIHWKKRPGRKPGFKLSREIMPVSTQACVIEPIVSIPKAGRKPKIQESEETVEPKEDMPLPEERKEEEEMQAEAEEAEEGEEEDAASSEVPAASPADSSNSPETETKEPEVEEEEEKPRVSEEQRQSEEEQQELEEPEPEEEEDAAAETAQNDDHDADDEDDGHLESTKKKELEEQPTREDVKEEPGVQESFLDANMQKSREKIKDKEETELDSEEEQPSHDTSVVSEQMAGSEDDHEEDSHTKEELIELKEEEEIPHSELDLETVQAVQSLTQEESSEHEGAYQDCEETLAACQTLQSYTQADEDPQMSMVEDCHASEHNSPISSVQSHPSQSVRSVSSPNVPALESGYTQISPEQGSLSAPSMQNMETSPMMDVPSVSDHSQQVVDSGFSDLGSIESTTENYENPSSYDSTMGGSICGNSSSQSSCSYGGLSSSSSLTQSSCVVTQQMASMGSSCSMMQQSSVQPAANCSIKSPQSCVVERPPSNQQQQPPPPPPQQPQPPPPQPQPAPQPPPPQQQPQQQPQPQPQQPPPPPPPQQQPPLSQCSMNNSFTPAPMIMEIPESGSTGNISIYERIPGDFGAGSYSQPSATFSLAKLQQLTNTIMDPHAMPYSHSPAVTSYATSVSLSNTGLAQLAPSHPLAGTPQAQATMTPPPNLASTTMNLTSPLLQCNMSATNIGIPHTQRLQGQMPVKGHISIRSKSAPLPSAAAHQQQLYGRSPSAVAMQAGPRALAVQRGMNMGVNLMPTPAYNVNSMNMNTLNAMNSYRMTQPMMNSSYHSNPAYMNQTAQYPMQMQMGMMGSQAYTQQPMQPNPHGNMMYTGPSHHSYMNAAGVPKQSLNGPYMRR
T2 sequence (Q92794 whole entry): as above

Compound `COc1cc(Cn2cccn2)cc2onc(NS(=O)(=O)c3cccc(N4CCN(CC5CCN(c6ccc7c(c6)C(=O)N(C6CCC(=O)NC6=O)C7=O)C5)CC4)c3)c12` (centres unmarked) [Example 1, N-(6-((1H-Pyrazol-1-yl)methyl)-4-methoxybenzo[d]isoxazol-3-yl)-3-(4-((1-(2-(2,6-dioxopiperidin-3-yl)-1,3-dioxoisoindolin-5-yl)pyrrolidin-3-yl)methyl)piperazin-1-yl)benzenesulfonamide] came in with an inhibition at 0.1 µM at KAT6A of 50 to 75%. On HiBit tagged KAT6A, this compound returned a DC50 of 100 to 1000 nM and a Dmax of 50 to 75%.

Compound `COc1cc(Cn2cccn2)cc2onc(NS(=O)(=O)c3cccc(N4CCN(CCCC5CCN(c6ccc7c(c6)C(=O)N(C6CCC(=O)NC6=O)C7=O)CC5)CC4)c3)c12` (centres unmarked) [Example 2, N-(6-((1H-Pyrazol-1-yl)methyl)-4-methoxybenzo[d]isoxazol-3-yl)-3-(4-(3-(1-(2-(2,6-dioxopiperidin-3-yl)-1,3-dioxoisoindolin-5-yl)piperidin-4-yl)propyl)piperazin-1-yl)benzenesulfonamide] had an inhibition at 0.1 µM against KAT6A of 50 to 75%. Besides, the Dmax on HiBit tagged KAT6A was 25 to 50%.

For `COc1cc(Cn2cccn2)cc2onc(NS(=O)(=O)c3cccc(N4CCN(CCC5CCN(c6ccc7c(c6)C(=O)N(C6CCC(=O)NC6=O)C7=O)CC5)CC4)c3)c12` (centres unmarked) [Example 3, N-(6-((1H-Pyrazol-1-yl)methyl)-4-methoxybenzo[d]isoxazol-3-yl)-3-(4-(2-(1-(2-(2,6-dioxopiperidin-3-yl)-1,3-dioxoisoindolin-5-yl)piperidin-4-yl)ethyl)piperazin-1-yl)benzenesulfonamide], at KAT6A, the inhibition at 0.1 µM was in the range of 0 to 50%. Further, at HiBit tagged KAT6A, the DC50 lay within 10 to 100 nM and the Dmax lay within 50 to 75%.

Turning to `COc1cc(Cn2cccn2)cc2onc(NS(=O)(=O)c3cccc(N4CCN(C5CC6(CCN(c7ccc8c(c7)C(=O)N(C7CCC(=O)NC7=O)C8=O)CC6)C5)CC4)c3)c12` (centres unmarked) [Example 4, 3-[4-[7-[2-(2,6-Dioxopiperidin-3-yl)-1,3-dioxoisoindol-5-yl]-7-azaspiro[3.5]nonan-2-yl]piperazin-1-yl]-N-[4-methoxy-6-(pyrazol-1-ylmethyl)-1,2-benzoxazol-3-yl]benzenesulfonamide], the inhibition at 0.1 µM against KAT6A fell in the range of 50 to 75%. For the same compound, at HiBit tagged KAT6A, the DC50 lay within 10 to 100 nM and the Dmax is > 75%.

Turning to `COc1cc(Cn2cccn2)cc2onc(NS(=O)(=O)c3cccc(N4CC5(CCN(CC6CCN(c7ccc8c(c7)C(=O)N(C7CCC(=O)NC7=O)C8=O)C6)CC5)C4)c3)c12` (centres unmarked) [Example 5, 3-[7-[[1-[2-(2,6-Dioxopiperidin-3-yl)-1,3-dioxoisoindol-5-yl]pyrrolidin-3-yl]methyl]-2,7-diazaspiro[3.5]nonan-2-yl]-N-[4-methoxy-6-(pyrazol-1-ylmethyl)-1,2-benzoxazol-3-yl]benzenesulfonamide], the inhibition at 0.1 µM at KAT6A was > 75%. At HiBit tagged KAT6A, the DC50 was < 10 nM and the Dmax is > 75%.

`COc1cc(Cn2cccn2)cc2onc(NS(=O)(=O)c3cccc(N4CCC(CN5CCN(c6ccc7c(c6)c6cccnc6n7C6CCC(=O)NC6=O)CC5)C4)c3)c12` (centres unmarked) [Example 6, 3-[3-[[4-[9-(2,6-Dioxopiperidin-3-yl)pyrido[2,3-b]indol-6-yl]piperazin-1-yl]methyl]pyrrolidin-1-yl]-N-[4-methoxy-6-(pyrazol-1-ylmethyl)-1,2-benzoxazol-3-yl]benzenesulfonamide] registered an inhibition at 0.1 µM against KAT6A of 50 to 75%. Also, at HiBit tagged KAT6A, the DC50 was in the range of 10 to 100 nM and the Dmax lay in the range of 50 to 75%.

Regarding `COc1cc(Cn2cccn2)cc2onc(NS(=O)(=O)c3cccc(N4CCN(CC5CCN(CC6CCN(c7ccc8c(c7)C(=O)N(C7CCC(=O)NC7=O)C8=O)CC6)CC5)CC4)c3)c12` (centres unmarked) [Example 7, 3-[4-[[1-[[1-[2-(2,6-Dioxopiperidin-3-yl)-1,3-dioxoisoindol-5-yl]piperidin-4-yl]methyl]piperidin-4-yl]methyl]piperazin-1-yl]-N-[4-methoxy-6-(pyrazol-1-ylmethyl)-1,2-benzoxazol-3-yl]benzenesulfonamide], on KAT6A, the inhibition at 0.1 µM is > 75%. Moreover, at HiBit tagged KAT6A, the DC50 is < 10 nM and the Dmax is > 75%.

Usually inhibition stands for the drop in the measured response relative to a control, in per cent. A higher inhibition goes with a strong effect. Usually DC50 stands for the concentration at which degradation of the target reaches its halfway point. High values mean a less potent degrader, low ones a more potent degrader. Broadly, the Dmax is the largest share of the target that was removed. Low values mean shallow degradation, high ones deep degradation.
